Square brackets hold non-standard residues; d marks the D form. Side chains are listed from the residue outwards. Peptide text beside a SMILES is read from it. * marks the point of attachment. C18 diacid = O=C(O)CCCCCCCCCCCCCCCCC(=O)*; Phe(2-F) = N[C@@H](Cc1ccccc1F)C(=O)O; NMeY = CN[C@@H](Cc1ccc(O)cc1)C(=O)O; Palmitoyl = CCCCCCCCCCCCCCCC(=O)*; αMeF = C[C@](N)(Cc1ccccc1)C(=O)O; Iva = CC[C@](C)(N)C(=O)O; Aib = CC(C)(N)C(=O)O
What follows are compounds tested on male C57BL/6J mouse (assay: Evaluation of feeding suppressive action in mice). Conditions: 30 nmol/kg s.c. once a day for 3 days; 3-days cumulative food consumption vs solvent control.
Type: in vivo
Method: The feeding suppressive activity of a test compound was examined by the method described below.
The test compound was dissolved at a concentration of 30 or 100 nmol/2 mL in a solvent (10% DMSO-containing physiological saline). The test compound solution was subcutaneously administered at a dose of 2 mL/kg to the back of each male C57BL/6J mouse at 8-9 weeks of age (20-26° C., allowed to take food and water ad libitum; raised in the 12-hour bright-12-hour dark cycle). The administration was performed once a day for 3 days. After the administration, the mouse was individually raised in a rearing cage, and given previously weighed food; food consumption for 3 days after the start of administration was measured. The food consumption was calculated by subtracting the amount of remaining food from the weight of the food given on the day of the start of administration. When the food consumption of a control group receiving administration of the solvent alone was regarded as a suppression rate of 0%, the feeding suppressive activity of each test compound was evaluated on the basis of 3-days cumulative food consumption after the start of administration. The food intake suppression rate (%) of the test compound was defined as (Food consumption of the control group−Food consumption of the test compound-administered group)/Food consumption of the control group×100.

| Structure (SMILES) | Rate of feeding suppression (%) |
| --- | --- |
| CCCCCCCCCCCCCCCC(=O)NCC(=O)NCC(=O)NCC(=O)NCC(=O)NCCCC[C@H](NC(=O)[C@H](CC(=O)O)NC(=O)[C@H](CO)NC(=O)[C@@H](NC(=O)[C@](C)(Cc1ccccc1)NC(=O)[C@@H](NC(=O)CNC(=O)[C@H](CCC(=O)O)NC(=O)C(C)(C)NC(=O)[C@@H](N)Cc1ccc(O)cc1)[C@@H](C)O)[C@@H](C)O)C(=O)N[C@@H](C)C(=O)N[C@H](C(=O)NC(C)(C)C(=O)N[C@@H](CC(C)C)C(=O)N[C@@H](CCC(=O)O)C(=O)N[C@@H](CCCCN)C(=O)N[C@@H](CCC(N)=O)C(=O)N[C@@H](CCCNC(=N)N)C(=O)N[C@@H](CCC(N)=O)C(=O)N[C@@](C)(CC)C(=O)N[C@@H](CCC(=O)O)C(=O)N[C@@H](Cc1ccccc1)C(=O)N[C@H](C(=O)N[C@@H](CCCNC(=N)N)C(=O)N[C@@H](Cc1c[nH]cn1)C(=O)N[C@@H](CC(C)C)C(=O)N[C@@H](CC(C)C)C(=O)N[C@@H](CC(N)=O)C(=O)N[C@@H](CCCCN)C(=O)NC(C)(C)C(=O)N[C@H](C(=O)N[C@@H](CCCNC(=N)N)C(=O)N[C@@H](CCC(N)=O)C(=O)N[C@@H](CCCNC(=N)N)C(=O)N[C@@H](Cc1ccc(O)cc1)C(N)=O)[C@@H](C)O)C(C)C)[C@@H](C)CC [Example 35] (H-Y[Aib]EGT[αMeF]TSDK([Gly-Gly-Gly-Gly-Palmitoyl])AI[Aib]LEKQRQ[Iva]EFVRHLLNK[Aib]TRQRY-NH2) | −52.6 |
| CC[C@H](C)[C@H](NC(=O)C(C)(C)NC(=O)[C@H](CCCCNC(=O)CNC(=O)CNC(=O)CNC(=O)CNC(=O)CCCCCCCCCCCCCCCCC(=O)O)NC(=O)[C@H](CC(=O)O)NC(=O)[C@H](CO)NC(=O)[C@@H](NC(=O)[C@](C)(Cc1ccccc1)NC(=O)[C@@H](NC(=O)CNC(=O)[C@H](CCC(=O)O)NC(=O)C(C)(C)NC(=O)[C@@H](N)Cc1ccc(O)cc1)[C@@H](C)O)[C@@H](C)O)C(=O)NC(C)(C)C(=O)N[C@@H](CC(C)C)C(=O)N[C@@H](CCC(=O)O)C(=O)N[C@@H](CCCCN)C(=O)N[C@@H](CCC(N)=O)C(=O)N[C@@H](CCCNC(=N)N)C(=O)N[C@@H](CCC(N)=O)C(=O)N[C@@](C)(CC)C(=O)N[C@@H](CCC(=O)O)C(=O)N[C@@H](Cc1ccccc1)C(=O)N[C@H](C(=O)N[C@@H](CCCNC(=N)N)C(=O)N[C@@H](Cc1c[nH]cn1)C(=O)N[C@@H](CC(C)C)C(=O)N[C@@H](CC(C)C)C(=O)N[C@@H](CC(N)=O)C(=O)N[C@@H](CCCCN)C(=O)NC(C)(C)C(=O)N[C@H](C(=O)N[C@@H](CCCNC(=N)N)C(=O)N[C@@H](CCC(N)=O)C(=O)N[C@@H](CCCNC(=N)N)C(=O)N[C@@H](Cc1ccc(O)cc1)C(N)=O)[C@@H](C)O)C(C)C [Example 32] (H-Y[Aib]EGT[αMeF]TSDK([Gly-Gly-Gly-Gly-C18 diacid])[Aib]I[Aib]LEKQRQ[Iva]EFVRHLLNK[Aib]TRQRY-NH2) | −51.0 |
| CCCCCCCCCCCCCCCC(=O)NCC(=O)NCC(=O)NCC(=O)NCC(=O)NCCCC[C@H](NC(=O)[C@H](CC(=O)O)NC(=O)[C@H](CO)NC(=O)[C@@H](NC(=O)[C@](C)(Cc1ccccc1)NC(=O)[C@@H](NC(=O)CNC(=O)[C@H](CCC(=O)O)NC(=O)C(C)(C)NC(=O)[C@H](Cc1ccc(O)cc1)NC)[C@@H](C)O)[C@@H](C)O)C(=O)N[C@@H](CO)C(=O)N[C@@H](CCCCN)C(=O)NC(C)(C)C(=O)N[C@@H](CC(C)C)C(=O)N[C@@H](CC(=O)O)C(=O)N[C@@H](CCCCN)C(=O)N[C@@H](CCC(N)=O)C(=O)N[C@@H](CCCNC(=N)N)C(=O)N[C@@H](CCC(N)=O)C(=O)N[C@@](C)(CC)C(=O)N[C@@H](CCC(=O)O)C(=O)N[C@@H](Cc1ccccc1)C(=O)N[C@H](C(=O)N[C@@H](CCCNC(=N)N)C(=O)N[C@@H](Cc1c[nH]cn1)C(=O)N[C@@H](CC(C)C)C(=O)N[C@@H](CC(C)C)C(=O)N[C@@H](CC(N)=O)C(=O)N[C@@H](CCCCN)C(=O)NC(C)(C)C(=O)N[C@H](C(=O)N[C@@H](CCCNC(=N)N)C(=O)N[C@@H](CCC(N)=O)C(=O)N[C@@H](CCCNC(=N)N)C(=O)N[C@@H](Cc1ccc(O)cc1)C(N)=O)[C@@H](C)O)C(C)C [Example 25] (H-[NMeY][Aib]EGT[αMeF]TSDK([Gly-Gly-Gly-Gly-Palmitoyl])SK[Aib]LDKQRQ[Iva]EFVRHLLNK[Aib]TRQRY-NH2) | −41.7 |
| CCCCCCCCCCCCCCCC(=O)NCC(=O)NCC(=O)NCC(=O)NCC(=O)NCCCC[C@H](NC(=O)[C@H](CC(=O)O)NC(=O)[C@H](CO)NC(=O)[C@@H](NC(=O)[C@](C)(Cc1ccccc1)NC(=O)[C@@H](NC(=O)CNC(=O)[C@H](CCC(=O)O)NC(=O)C(C)(C)NC(=O)[C@@H](N)Cc1ccc(O)cc1)[C@@H](C)O)[C@@H](C)O)C(=O)N[C@@H](CO)C(=O)N[C@H](C(=O)NC(C)(C)C(=O)N[C@@H](CC(C)C)C(=O)N[C@@H](CC(=O)O)C(=O)N[C@@H](CCCCN)C(=O)N[C@@H](CCC(N)=O)C(=O)N[C@@H](CCCNC(=N)N)C(=O)N[C@@H](CCC(N)=O)C(=O)N[C@@](C)(CC)C(=O)N[C@@H](CCC(=O)O)C(=O)N[C@@H](Cc1ccccc1)C(=O)N[C@H](C(=O)N[C@@H](CCCNC(=N)N)C(=O)N[C@@H](Cc1c[nH]cn1)C(=O)N[C@@H](CC(C)C)C(=O)N[C@@H](CC(C)C)C(=O)N[C@@H](CC(N)=O)C(=O)N[C@@H](CCCCN)C(=O)NC(C)(C)C(=O)N[C@H](C(=O)N[C@@H](CCCNC(=N)N)C(=O)N[C@@H](CCC(N)=O)C(=O)N[C@@H](CCCNC(=N)N)C(=O)N[C@@H](Cc1ccc(O)cc1)C(N)=O)[C@@H](C)O)C(C)C)[C@@H](C)CC [Example 15] (H-Y[Aib]EGT[αMeF]TSDK([Gly-Gly-Gly-Gly-Palmitoyl])SI[Aib]LDKQRQ[Iva]EFVRHLLNK[Aib]TRQRY-NH2) | −41.2 |
| CCCCCCCCCCCCCCCC(=O)NCC(=O)NCC(=O)NCC(=O)NCC(=O)NCCCC[C@H](NC(=O)[C@H](CC(=O)O)NC(=O)[C@H](CO)NC(=O)[C@@H](NC(=O)[C@](C)(Cc1ccccc1)NC(=O)[C@@H](NC(=O)CNC(=O)[C@H](CCC(=O)O)NC(=O)C(C)(C)NC(=O)[C@@H](N)Cc1ccc(O)cc1)[C@@H](C)O)[C@@H](C)O)C(=O)N[C@@H](C)C(=O)N[C@H](C(=O)NC(C)(C)C(=O)N[C@@H](CC(C)C)C(=O)N[C@@H](CC(=O)O)C(=O)N[C@@H](CCCCN)C(=O)N[C@@H](CCC(N)=O)C(=O)N[C@@H](CCCNC(=N)N)C(=O)N[C@@H](CCC(N)=O)C(=O)N[C@@](C)(CC)C(=O)N[C@@H](CCC(=O)O)C(=O)N[C@@H](Cc1ccccc1)C(=O)N[C@H](C(=O)N[C@@H](CCCNC(=N)N)C(=O)N[C@@H](Cc1c[nH]cn1)C(=O)N[C@@H](CC(C)C)C(=O)N[C@@H](CC(C)C)C(=O)N[C@@H](CC(N)=O)C(=O)N[C@@H](CCCCN)C(=O)NC(C)(C)C(=O)N[C@H](C(=O)N[C@@H](CCCNC(=N)N)C(=O)N[C@@H](CCC(N)=O)C(=O)N[C@@H](CCCNC(=N)N)C(=O)N[C@@H](Cc1ccc(O)cc1)C(N)=O)[C@@H](C)O)C(C)C)[C@@H](C)CC [Example 11] (H-Y[Aib]EGT[αMeF]TSDK([Gly-Gly-Gly-Gly-Palmitoyl])AI[Aib]LDKQRQ[Iva]EFVRHLLNK[Aib]TRQRY-NH2) | −48.1 |
| CCCCCCCCCCCCCCCC(=O)NCC(=O)NCC(=O)NCC(=O)NCC(=O)NCCCC[C@H](NC(=O)[C@H](CC(=O)O)NC(=O)[C@H](CO)NC(=O)[C@@H](NC(=O)[C@](C)(Cc1ccccc1)NC(=O)[C@@H](NC(=O)CNC(=O)[C@H](CCC(=O)O)NC(=O)C(C)(C)NC(=O)[C@@H](N)Cc1ccc(O)cc1)[C@@H](C)O)[C@@H](C)O)C(=O)NC(C)(C)C(=O)N[C@H](C(=O)NC(C)(C)C(=O)N[C@@H](CC(C)C)C(=O)N[C@@H](CC(=O)O)C(=O)N[C@@H](CCCCN)C(=O)N[C@@H](CCC(N)=O)C(=O)N[C@@H](C)C(=O)N[C@@H](CCC(N)=O)C(=O)N[C@@](C)(CC)C(=O)N[C@@H](CCC(=O)O)C(=O)N[C@@H](Cc1ccccc1)C(=O)N[C@H](C(=O)N[C@@H](CCCNC(=N)N)C(=O)N[C@@H](Cc1c[nH]cn1)C(=O)N[C@@H](CC(C)C)C(=O)N[C@@H](CC(C)C)C(=O)N[C@@H](CC(N)=O)C(=O)N[C@@H](CCCCN)C(=O)NC(C)(C)C(=O)N[C@H](C(=O)N[C@@H](CCCNC(=N)N)C(=O)N[C@@H](CCC(N)=O)C(=O)N[C@@H](CCCNC(=N)N)C(=O)N[C@@H](Cc1ccccc1F)C(N)=O)[C@@H](C)O)C(C)C)[C@@H](C)CC [Example 1] (H-Y[Aib]EGT[αMeF]TSDK([Gly-Gly-Gly-Gly-Palmitoyl])[Aib]I[Aib]LDKQAQ[Iva]EFVRHLLNK[Aib]TRQR[Phe(2-F)]-NH2) | −37.1 |
| CCCCCCCCCCCCCCCC(=O)NCC(=O)NCC(=O)NCC(=O)NCC(=O)NCCCC[C@H](NC(=O)[C@H](CC(=O)O)NC(=O)[C@H](CO)NC(=O)[C@@H](NC(=O)[C@](C)(Cc1ccccc1)NC(=O)[C@@H](NC(=O)CNC(=O)[C@H](CCC(=O)O)NC(=O)C(C)(C)NC(=O)[C@H](Cc1ccc(O)cc1)NC)[C@@H](C)O)[C@@H](C)O)C(=O)NC(C)(C)C(=O)N[C@@H](CCCCN)C(=O)NC(C)(C)C(=O)N[C@@H](CC(C)C)C(=O)N[C@@H](CC(=O)O)C(=O)N[C@@H](CCCCN)C(=O)N[C@@H](CCC(N)=O)C(=O)N[C@@H](CCCNC(=N)N)C(=O)N[C@@H](CCC(N)=O)C(=O)N[C@@](C)(CC)C(=O)N[C@@H](CCC(=O)O)C(=O)N[C@@H](Cc1ccccc1)C(=O)N[C@H](C(=O)N[C@@H](CCCNC(=N)N)C(=O)N[C@@H](Cc1c[nH]cn1)C(=O)N[C@@H](CC(C)C)C(=O)N[C@@H](CC(C)C)C(=O)N[C@@H](CC(N)=O)C(=O)N[C@@H](CCCCN)C(=O)NC(C)(C)C(=O)N[C@H](C(=O)N[C@@H](CCCNC(=N)N)C(=O)N[C@@H](CCC(N)=O)C(=O)N[C@@H](CCCNC(=N)N)C(=O)N[C@@H](Cc1ccc(O)cc1)C(N)=O)[C@@H](C)O)C(C)C [Example 21] (H-[NMeY][Aib]EGT[αMeF]TSDK([Gly-Gly-Gly-Gly-Palmitoyl])[Aib]K[Aib]LDKQRQ[Iva]EFVRHLLNK[Aib]TRQRY-NH2) | −27.9 |

Source: patent US10501516B2, “Peptide compound” (TAKEDA PHARMACEUTICAL COMPANY LIMITED, priority 2016, dated 2019)
